Assay results: article PMC10774164, “Hydrolysis of ionic liquid–treated substrate with an Iocasia fonsfrigidae strain SP3-1 endoglucanase” (Applied Microbiology and Biotechnology, 2024)

Test system: T1, IfCelS12A
T1 construct: tag removal not described
Assay: hydrolysis kinetics, Lineweaver-Burk plot
Type: biochemical, Iocasia fonsfrigidae
Settings: 50 mM Tris-HCl pH 7.0, 50 °C, 10 min, 0.5 μM enzyme
Description: hydrolysis kinetics, Lineweaver-Burk plot on IfCelS12A

Structure (SMILES): OC[C@H]1O[C@@H](O[C@H]2[C@H](O)[C@@H](O)[C@H](O[C@H]3[C@H](O)[C@@H](O)[C@H](O[C@H]4[C@H](O)[C@@H](O)[C@H](O[C@H]5[C@H](O)[C@@H](O)[C@H](O[C@H]6[C@H](O)[C@@H](O)C(O)O[C@@H]6CO)O[C@@H]5CO)O[C@@H]4CO)O[C@@H]3CO)O[C@@H]2CO)[C@H](O)[C@@H](O)[C@@H]1O (stereo partly drawn) [G6, Cellohexaose]
- Km: 390 µM

Structure (SMILES): OC[C@H]1O[C@@H](O[C@H]2[C@H](O)[C@@H](O)[C@H](O[C@H]3[C@H](O)[C@@H](O)[C@H](O[C@H]4[C@H](O)[C@@H](O)[C@H](O[C@H]5[C@H](O)[C@@H](O)C(O)O[C@@H]5CO)O[C@@H]4CO)O[C@@H]3CO)O[C@@H]2CO)[C@H](O)[C@@H](O)[C@@H]1O (stereo partly drawn) [G5, Cellopentaose]
- Km: 270 µM

Structure (SMILES): OC[C@H]1O[C@@H](O[C@H]2[C@H](O)[C@@H](O)[C@H](O[C@H]3[C@H](O)[C@@H](O)[C@H](O[C@H]4[C@H](O)[C@@H](O)C(O)O[C@@H]4CO)O[C@@H]3CO)O[C@@H]2CO)[C@H](O)[C@@H](O)[C@@H]1O (stereo partly drawn) [G4, Cellotetraose]
- Km: 250 µM
